Patent US20230293412A1, “SHAMPOOS AND METHODS OF PREPARING AND USING THE SAME” (SHANDONG BENZHEN COSMETICS CO., LTD, priority 2020, published 2023)

Key:
fish = test: Fish acute toxicity test of surfactants; assay type: in vivo; settings: for survival time: fish in aqueous solution of surfactant diluted 6000 times, 25° C.; for fish survival: fish in surfactant solution at 1:6000
Procedure: (§1) Test method. The experimental environment is at a constant temperature of 25° C., the surfactants is diluted 200 and 6000 times with triple distilled water. The surface tension is tested by JY-200C full-automatic interfacial tensiometer, referring to (GB5545 Surfactant Determination of surface tension by pulling up liquid film). The fish acute toxicity test is carried out tin the aqueous solution diluted 6000 times with surfactant, referencing to (GB/T 21281-2007 fish acute toxicity test classification test method of hazardous chemicals).

[1] = Surface tension of surfactants diluted 200 and 6000 times; assay type: physicochemical; settings: 25° C.; for Surface tension 1:200: surfactant diluted 200 times with triple distilled water; for Surface tension 1:6000: surfactant diluted 6000 times with triple distilled water
Procedure: We classify surfactants into three types: anionic surfactants, zwitterionic surfactants, and nonionic surfactants. Experimental studies on the surface tension and acute toxicity of fish were conducted on the above-mentioned main surfactants and other kinds of surfactants used in shampoo, bath and other care products.
as §1

Molecule | survival time (fish) [min] | fish survival (fish) [h] | Surface tension 1:200 [1] [mN/m] | Surface tension 1:6000 [1] [mN/m]
CCCCCCCCCCCC(=O)N(C)CC(=O)[O-].[Na+] [Shampoo 4202, Sodium lauroyl sarcosinate (30%)] | >1440 | 24 | 27.9 | 64.8
CCCCCCCCCCCCOS(=O)(=O)[O-].[Na+] [Shampoo K12, Sodium lauryl sulfate] |  |  | 35.0 | 40.8
CCCCCCCCCCCCOS(=O)(=O)O.N [Shampoo K12-A, ammonium lauryl sulfate] |  |  | 26.7 | 38.9
Alkyl glycoside (C8-C10) [APG1] | 33 |  | 28.3 | 47.3
Alkyl glycoside (C12-C14) [APG2] | 25 |  | 28.2 | 28.5
Alkyl glycoside (import) [APGj] | 25 |  | 28.1 | 28.6
Coconut oil fatty acid diethanolamide [Shampoo 6501] | 44 |  | 26.0 | 27.6
Fatty alcohol polyoxyethylene ether [AEO-3] | 27 |  | 27.2 | 27.3
Fatty alcohol polyoxyethylene ether [AEO-7] | 21 |  | 27.6 | 29.3
Fatty alcohol polyoxyethylene ether [AEO-9] | 18 |  | 30.2 | 30.4
Imidazoline (import) [ZMLj] | 64 |  | 28.5 | 31.3
Imidazoline [MZL] | 134 |  | 29.1 | 45.5
Lauramide propyl amine oxide [Shampoo 4501] | 15 |  | 30.5 | 31.2
Methyl glucose dioleate [DOE-120] | >1440 | 24 | 42.6 | 49.4
Sodium Cocoyl Isethionate-85 [SCI-85] | 24 |  | 30.6 | 42.8
Sodium dodecyl ether phosphate [Shampoo 1211] | 284 |  | 35.2 | 40.5
Sodium secondary alkyl sulfonate [SAS] | 41 |  | 31.3 | 41.5
Sodium α-alkenyl sulfonate [AOS] |  |  | 31.8 | 41.8
Sulfobetaine [ASB] | 42 |  | 35.3 | 47.5
ammonium laureth ether sulfate [AES-A] |  |  | 34.9 | 32.9
cocamidopropyl betaine [CAB] | 27 |  | 31.3 | 32.4
sodium laureth ether sulfate [AES] |  |  | 36.4 | 36.2
